Data taken from patent publication US7759345B2, “Antitumoral derivatives of ET-743” (priority 2001, dated 2010).
Where two headings read alike, the source gives them in different places.

How the values were obtained:
[1] = system: HT-29; assay: Inhibition of cells growth by colorimetric assay (SRB), HT-29; assay type: cell-based
Protocol: (§1) 2°.—Inhibition of Cells Growth by Colorimetric Assay.
(§2) A colorimetric type of assay, using sulforhodamine B (SRB) reaction has been adapted for a quantitative measurement of cell growth and viability [following the technique described by Philip Skehan, et al. (1990), New colorimetric cytotoxicity assay for anticancer drug screening, J. Natl. Cancer Inst., 82:1107-1112]
(§3) This form of the assay employs 96 well cell culture microplates of 9 mm diameter (Faircloth, 1988; Mosmann, 1983). Most of the cell lines are obtained from American Type Culture Collection (ATCC) derived from different human cancer types.
(§4) Cells are maintained in RPMI 1640 10% FBS, supplemented with 0.1 g/l penicillin and 0.1 g/l streptomycin sulfate and then incubated at 37° C., 5% CO2 and 98% humidity. For the experiments, cells were harvested from subconfluent cultures using trypsin and resuspended in fresh medium before plating.
(§5) Cells are seeded in 96 well microtiter plates, at 5×10^3 cells per well in aliquots of 195 μl medium, and they are allowed to attach to the plate surface by growing in drug free medium for 18 hours. Afterward, samples are added in aliquots of 5 μl in a ranging from 10 to 10^−8 μg/ml, dissolved in DMSO/EtOH/PBS (0.5:0.5:99). After 48 hours exposure, the antitumor effect are measured by the SRB methodology: cells are fixed by adding 50 μl of cold 50% (wt/vol) trichloroacetic acid (TCA) and incubating for 60 minutes at 4° C. Plates are washed with deionized water and dried. One hundred μl of SRB solution (0.4% wt/vol in 1% acetic acid) is added to each microtiter well and incubated for 10 minutes at room temperature. Unbound SRB is removed by washing with 1% acetic acid. Plates are air dried and bound stain is solubilized with Tris buffer. Optical densities are read on a automated spectrophotometric plate reader at a single wavelength of 490 nm.
(§6) The values for mean+/−SD of data from triplicate wells are calculated. Some parameters for cellular responses can be calculated: GI=growth inhibition, TGI=total growth inhibition (cytostatic effect) and LC=cell killing (cytotoxic effect).
(§7) Obtained results may predict the usefulness of a certain drug as a potential cancer treatment. For this technique, compounds which show GI50 values smaller than 10 μg/ml are selected to continue with further studies. GI50's data allow to predict that not only could a drug be cystostatic, but also it could have a potential in terms of tumor reduction.

[2] = system: A-549; assay: Inhibition of cells growth by colorimetric assay (SRB), A-549; assay type: cell-based
Protocol: as §1, §2, §3, §4, §5, §6, §7

[3] = Homo sapiens, HT-29, 48 h, HT-29, SRB, 48 hours exposure, read-out: GI50 HT-29
[4] = Homo sapiens, HT-29, 48 h, read-out: LC50 HT-29, HT-29, SRB, 48 hours exposure
[5] = Homo sapiens, A549, 48 h, A-549, SRB, 48 hours exposure, read-out: GI50 A-549
[6] = Homo sapiens, A549, 48 h, read-out: LC50 A-549, A-549, SRB, 48 hours exposure
[7] = Homo sapiens, HT-29, 48 h, read-out: HT-29 GI50
[8] = Homo sapiens, HT-29, 48 h, read-out: HT-29 LC50, HT-29, SRB, 48 hours exposure
[9] = Homo sapiens, A549, 48 h, read-out: A-549 GI50
[10] = Homo sapiens, A549, 48 h, read-out: A-549 LC50, A-549, SRB, 48 hours exposure
[11] = Homo sapiens, HT-29, 48 h, HT-29, SRB, 48 hours exposure, read-out: HT-29 GI50
[12] = Homo sapiens, A549, 48 h, A-549, SRB, 48 hours exposure, read-out: A-549 GI50

SMILES	TGI HT-29 ([1]; HT-29, SRB, 48 hours exposure)	GI50 [1, 3] [nM]	LC50 (concentration for 50% cell killing) [1, 4] [nM]	TGI A-549 ([2]; A-549, SRB, 48 hours exposure)	GI50 [2, 5] [nM]	LC50 (concentration for 50% cell killing) [2, 6] [nM]	HT-29 TGI ([1]; HT-29, SRB, 48 hours exposure)	A-549 TGI ([2]; A-549, SRB, 48 hours exposure)	other results
COc1cc2c(cc1OC(=O)C(F)(F)C(F)(F)C(F)(F)F)CCN[C@]21CS[C@@H]2c3c(OC(C)=O)c(C)c4c(c3[C@H](COC1=O)N1C2[C@H]2c3c(cc(C)c(OC)c3O)C[C@@H]([C@@H]1C#N)N2C)OCO4 (stereo partly drawn) [Compound 13]	3.24E-10	0.324	10.8	3.24E-09	1.08	8.65	–	–	–
COc1cc2c(cc1OC(=O)c1cc3ccccc3oc1=O)CCN[C@]21CS[C@@H]2c3c(OC(C)=O)c(C)c4c(c3[C@H](COC1=O)N1C2[C@H]2c3c(cc(C)c(OC)c3O)C[C@@H]([C@@H]1C#N)N2C)OCO4 (stereo partly drawn) [Compound 21]	1.06E-07	5.31	10600	1.06E-08	3.34	10600	–	–	–
C=COC(=O)Oc1cc2c(cc1OC)[C@@]1(CS[C@@H]3c4c(OC(C)=O)c(C)c5c(c4[C@H](COC1=O)N1C3[C@H]3c4c(cc(C)c(OC)c4O)C[C@@H]([C@@H]1C#N)N3C)OCO5)NCC2 (stereo partly drawn) [Compound 29]	2.16E-09	2.16	1080	4.32E-09	2.16	10.8	–	–	–
C=COC(=O)Oc1cc2c(cc1OC)[C@@]1(CS[C@@H]3c4c(OC(C)=O)c(C)c5c(c4[C@H](COC1=O)N1C3[C@H]3c4c(cc(C)c(OC)c4OC(=O)OC=C)C[C@@H]([C@@H]1C#N)N3C)OCO5)NCC2 (stereo partly drawn) [Compound 30]	8.78E-08	87.8	11000	5.49E-08	32.9	3290	–	–	–
C=COC(=O)Oc1cc2c(cc1OC)[C@@]1(CS[C@@H]3c4c(OC(C)=O)c(C)c5c(c4[C@H](COC1=O)N1C3[C@H]3c4c(cc(C)c(OC)c4OC(=O)OC=C)C[C@@H]([C@@H]1C#N)N3C)OCO5)N(C(=O)OC=C)CC2 (stereo partly drawn) [Compound 31]	8.15E-08	81.5	10200	9.17E-08	40.8	1020	–	–	–
C=COC(=O)Oc1cc2c(cc1OC)[C@@]1(CS[C@@H]3c4c(OC(C)=O)c(C)c5c(c4[C@H](COC1=O)N1C3[C@H]3c4c(cc(C)c(OC)c4O)C[C@@H]([C@@H]1C#N)N3C)OCO5)N(C(=O)OC=C)CC2 (stereo partly drawn) [Compound 32]	6.60E-09	1.1	9.88	6.59E-09	2.2	11	–	–	–
C=COC(=O)N1CCc2cc(O)c(OC)cc2[C@@]12CS[C@@H]1c3c(OC(C)=O)c(C)c4c(c3[C@H](COC2=O)N2C1[C@H]1c3c(cc(C)c(OC)c3O)C[C@@H]([C@@H]2C#N)N1C)OCO4 (stereo partly drawn) [Compound 33]	1.25E-07	34.2	12500	2.50E-08	4.37	12700	–	–	–
COc1cc2c(cc1OC)[C@@]1(CS[C@@H]3c4c(OC(C)=O)c(C)c5c(c4[C@H](COC1=O)N1C3[C@H]3c4c(cc(C)c(OC)c4O)C[C@@H]([C@@H]1C#N)N3C)OCO5)NCC2 (stereo partly drawn) [Compound 34]	1.29E-08	0.809	12700	2.84E-09	0.764	9.06	–	–	–
COc1cc2c(cc1OC)[C@@]1(CS[C@@H]3c4c(OC(C)=O)c(C)c5c(c4[C@H](COC1=O)N1C3[C@H]3c4c(cc(C)c(OC)c4OC)C[C@@H]([C@@H]1C#N)N3C)OCO5)NCC2 (stereo partly drawn) [Compound 35]	1.25E-08	5.41	12500	7.22E-08	5.68	2150	–	–	–
COc1cc2c(cc1O)CCN[C@]21CS[C@@H]2c3c(OC(C)=O)c(C)c4c(c3[C@H](COC1=O)N1C2[C@H]2c3c(cc(C)c(OC)c3OC)C[C@@H]([C@@H]1C#N)N2C)OCO4 (stereo partly drawn) [Compound 36]	2.55E-08	5.67	12700	1.03E-07	6.26	4140	–	–	–
C=COC(=O)Oc1c(C)c2c(c3c1[C@H]1SC[C@]4(NCCc5cc(OC(=O)OC(C)(C)C)c(OC)cc54)C(=O)OC[C@@H]3N3C1[C@H]1c4c(cc(C)c(OC)c4O)C[C@@H]([C@@H]3C#N)N1C)OCO2 (stereo partly drawn) [Compound 118]	–	–	–	–	–	–	7.79E-09	8.90E-08	GI50 [1, 7]: 7.79 nM; LC50 (concentration for 50% cell killing) [1, 8]: 11100 nM; GI50 [2, 9]: 3.34 nM; LC50 (concentration for 50% cell killing) [2, 10]: 2220 nM
COc1cc2c(cc1OC(=O)OC(C)(C)C)CCNC21CSC2c3c(OC(=O)CCCCC4SCC5NC(=O)NC54)c(C)c4c(c3C(COC1=O)N1C(C#N)C3Cc5cc(C)c(OC)c(O)c5C(C21)N3C)OCO4 (stereo not drawn) [Compound 123]	–	–	–	–	–	–	3.14E-09	2.09E-08	GI50 ([1]; HT-29, SRB, 48 hours exposure, read-out: HT-29 GI50): 3.14 nM; CC50 ([1]; HT-29, SRB, 48 hours exposure, read-out: HT-29 LC50): 31.4 nM; GI50 ([2]; A-549, SRB, 48 hours exposure, read-out: A-549 GI50): 7.33 nM; LC50 (50% lethal concentration) ([2]; A-549, SRB, 48 hours exposure, read-out: A-549 LC50): 73.3 nM
COc1cc2c(cc1OC(=O)OC(C)(C)C)CCN[C@]21CS[C@@H]2c3c(OC(=O)[C@H](C)NC(=O)OC(C)(C)C)c(C)c4c(c3[C@H](COC1=O)N1C2[C@H]2c3c(cc(C)c(OC)c3O)C[C@@H]([C@@H]1C#N)N2C)OCO4 (stereo partly drawn) [Compound 125]	–	–	–	–	–	–	2.00E-10	3.00E-09	GI50 [1, 11]: 0.2 nM; LC50 (concentration for 50% cell killing) [1, 8]: 3 nM; GI50 [2, 12]: 1 nM; LC50 (concentration for 50% cell killing) [2, 10]: 8 nM
COc1cc2c(cc1O)CCN[C@]21CS[C@@H]2c3c(OC(=O)C(F)(F)C(F)(F)C(F)(F)F)c(C)c4c(c3[C@H](COC1=O)N1C2[C@H]2c3c(cc(C)c(OC)c3O)C[C@@H]([C@@H]1C#N)N2C)OCO4 (stereo partly drawn) [Compound 143]	–	–	–	–	–	–	1.08E-08	4.32E-08	GI50 [1, 7]: 10.8 nM; LC50 (concentration for 50% cell killing) [1, 8]: 10800 nM; GI50 [2, 9]: 21.6 nM; LC50 (concentration for 50% cell killing) [2, 10]: 108 nM
COc1cc2c(cc1O)CCN[C@]21CS[C@@H]2c3c(OC(=O)CCCC[C@@H]4SCC5NC(=O)NC54)c(C)c4c(c3[C@H](COC1=O)N1C2[C@H]2c3c(cc(C)c(OC)c3O)C[C@@H]([C@@H]1C#N)N2C)OCO4 (stereo partly drawn) [Compound 147]	–	–	–	–	–	–	1.05E-07	6.84E-08	GI50 [1, 11]: 19.7 nM; LC50 (concentration for 50% cell killing) [1, 8]: 10500 nM; GI50 [2, 12]: 32.6 nM; LC50 (concentration for 50% cell killing) [2, 10]: 1050 nM
